In article PMC8404200, “Synthetic Glycolipids as Molecular Vaccine Adjuvants: Mechanism of Action in Human Cells and In Vivo Activity” (Journal of Medicinal Chemistry, 2021):

Target: T1, MD-2 (TLR4/MD-2 complex) (Homo sapiens, UniProt Q9Y6Y9)
T1 construct: gene LY96; Recombinant human TLR4/MD2 complex; with TLR4
Test: SPR (Biacore X100) on immobilized recombinant human TLR4/MD-2; agonism supported in HEK-Blue hTLR4 cells
Assay type: binding

T1 sequence (Q9Y6Y9 19-160): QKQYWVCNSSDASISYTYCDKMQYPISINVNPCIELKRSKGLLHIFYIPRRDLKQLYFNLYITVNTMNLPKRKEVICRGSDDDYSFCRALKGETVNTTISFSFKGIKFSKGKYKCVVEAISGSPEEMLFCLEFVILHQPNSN
T1 sequence (O00206 24-839 partner): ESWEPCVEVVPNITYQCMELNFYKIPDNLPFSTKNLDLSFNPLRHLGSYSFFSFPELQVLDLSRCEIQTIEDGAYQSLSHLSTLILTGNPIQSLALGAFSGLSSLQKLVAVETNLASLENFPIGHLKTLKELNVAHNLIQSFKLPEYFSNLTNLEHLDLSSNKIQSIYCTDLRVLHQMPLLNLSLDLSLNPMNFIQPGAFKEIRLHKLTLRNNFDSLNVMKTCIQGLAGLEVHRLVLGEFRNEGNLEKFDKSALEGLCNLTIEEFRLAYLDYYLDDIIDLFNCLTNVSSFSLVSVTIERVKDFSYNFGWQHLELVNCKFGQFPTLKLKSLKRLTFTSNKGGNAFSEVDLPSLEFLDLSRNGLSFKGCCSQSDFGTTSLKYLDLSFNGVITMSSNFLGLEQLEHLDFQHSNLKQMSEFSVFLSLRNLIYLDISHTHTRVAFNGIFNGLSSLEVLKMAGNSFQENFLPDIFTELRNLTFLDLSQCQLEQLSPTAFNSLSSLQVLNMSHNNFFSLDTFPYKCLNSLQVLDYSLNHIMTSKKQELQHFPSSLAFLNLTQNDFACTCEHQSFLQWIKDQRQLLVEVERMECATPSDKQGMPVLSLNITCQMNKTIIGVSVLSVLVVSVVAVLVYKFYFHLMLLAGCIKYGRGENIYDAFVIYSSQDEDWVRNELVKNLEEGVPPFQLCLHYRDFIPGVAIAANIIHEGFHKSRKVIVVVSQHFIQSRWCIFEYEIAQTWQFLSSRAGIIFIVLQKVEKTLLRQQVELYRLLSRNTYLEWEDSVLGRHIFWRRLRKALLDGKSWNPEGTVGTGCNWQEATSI

CCCCCCCCCCCCCC(=O)N[C@H]1[C@@H](OP(=O)(O)O)O[C@H](CO)[C@@H](OC(=O)CCCCCCCCCCCCC)[C@@H]1OC(=O)CCCCCCCCCCCCC [FP11]
Kd: 180 nM

CCCCCCCCCCCC(=O)N[C@H]1[C@@H](OP(=O)(O)O)O[C@H](CO)[C@@H](OC(=O)CCCCCCCCCCC)[C@@H]1OC(=O)CCCCCCCCCCC [FP18]
Kd: 570 nM
